The values that follow come from ChEMBL document CHEMBL1201862, “PubChem BioAssay data set” (2004).

Among the test systems are KM12; A549; SW-620; HCC 2998; UO-31; RPMI-8226; RXF 393; OVCAR-4; HT-29; OVCAR-8; 786-0; SF-268; SK-OV-3; UACC-62; KM-20L2; HL-60; Malme-3M; OVCAR-3.
Holding throughout (test): NCI-60 cell line screen, 48 h

Structures are written as SMILES.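 48-hour exposure; five concentrations; linearly interpolated endpoints. GI50 = concentration required for 50% inhibition of growth.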 Activity calls are given as the source filed them. No stated cut-off is given here; in the data, active = GI50 up to about 1.1 µM and inactive = higher. Bounds are passed on as bounds.

Consider `COc1ccc(C(O)/C(=C/n2ccnc2)c2ccccc2)cc1OC` (stereo unspecified), for which the GI50 in the assay on KM12, in the assay with A549, in the assay on SW-620, in the assay with HCC 2998, in the assay on UO-31 and in the assay with RPMI-8226 was > 100 µM (inactive) each time. The GI50 with RXF 393, with OVCAR-4, in the assay with HT-29, with OVCAR-8, in the assay on 786-0 and with SF-268 was > 100 µM (inactive) in each case. Besides, the GI50 in the assay on SK-OV-3, in the assay on UACC-62, in the assay on KM-20L2, in the assay on HL-60, with Malme-3M and in the assay with OVCAR-3 was > 100 µM (inactive) in each case.
Regarding `C=CCNC(=O)NCCCCC(NC(C)=O)C(=O)NCc1ccccc1` (stereo unspecified), the GI50 in the assay with KM12, in the assay with A549, with SW-620, in the assay with HCC 2998, with UO-31 and with RPMI-8226 was > 100 µM (inactive) each time. Also, the GI50 with RXF 393, in the assay on OVCAR-4, in the assay with HT-29, in the assay on OVCAR-8, in the assay with 786-0 and with SF-268 was > 100 µM (inactive) each time. For the same compound, the GI50 with SK-OV-3, in the assay on UACC-62, in the assay with KM-20L2, with HL-60, in the assay with Malme-3M and with OVCAR-3 was > 100 µM (inactive) in each case.
As for `Cc1ccc(NC(=O)CC/C(CC(=O)C(C)(C)C)=N\NC(=O)C[n+]2ccccc2)cc1C`, the GI50 with KM12 was > 100 µM (inactive); in the assay on A549 it was > 100 µM (inactive); in the assay with SW-620, > 100 µM (inactive); in the assay with HCC 2998, > 100 µM (inactive); in the assay with UO-31 it was > 100 µM (inactive); in the assay with RPMI-8226, 87.7 µM (inactive). Further, the GI50 with RXF 393 was 68.1 µM (inactive); with OVCAR-4, > 100 µM (inactive); in the assay with HT-29, 91.2 µM (inactive); in the assay with OVCAR-8 it was > 100 µM (inactive); with 786-0 it was > 100 µM (inactive); in the assay on SF-268, > 100 µM (inactive). Further, the GI50 with SK-OV-3 is > 100 µM (inactive); in the assay with UACC-62, > 100 µM (inactive); in the assay with KM-20L2, > 100 µM (inactive); in the assay with HL-60 it was 32 µM (inactive); with Malme-3M, > 100 µM (inactive); in the assay with OVCAR-3, > 100 µM (inactive).
Regarding `COC(=O)N/N=C(\C(=O)Nc1cccc([N+](=O)[O-])c1)c1nc2ccc([N+](=O)[O-])cc2nc1O`, the GI50 is 29.4 µM (inactive) in the assay on KM12; 42.9 µM (inactive) in the assay with A549; 45.1 µM (inactive) in the assay with SW-620; 33 µM (inactive) with HCC 2998; 14.5 µM (inactive) with UO-31; 32.7 µM (inactive) in the assay on RPMI-8226. The GI50 was > 100 µM (inactive) in the assay on RXF 393; > 100 µM (inactive) in the assay with OVCAR-4; 60.7 µM (inactive) with HT-29; 83.2 µM (inactive) in the assay with OVCAR-8; 53.1 µM (inactive) in the assay on 786-0; 0.38 µM (active) in the assay with SF-268. Also, the GI50 is > 100 µM (inactive) in the assay with SK-OV-3; 12.4 µM (inactive) in the assay on UACC-62; 13.9 µM (inactive) with KM-20L2; > 100 µM (inactive) in the assay with HL-60; > 100 µM (inactive) in the assay on Malme-3M; 49.8 µM (inactive) in the assay with OVCAR-3.
Consider `COP(=O)(OC)C(NC(=O)C(F)(F)F)(c1ccccc1)C(F)(F)F` (stereo unspecified), for which the GI50 with KM12, in the assay on A549, in the assay on SW-620, in the assay with HCC 2998, in the assay with UO-31 and in the assay with RPMI-8226 was > 100 µM (inactive) each time. Further, the GI50 in the assay on RXF 393, in the assay on OVCAR-4, in the assay on HT-29, in the assay on OVCAR-8, in the assay with 786-0 and in the assay on SF-268 was > 100 µM (inactive) each time. Further, the GI50 in the assay on SK-OV-3, with UACC-62, in the assay with KM-20L2, with HL-60, in the assay on Malme-3M and in the assay on OVCAR-3 was > 100 µM (inactive) in each case.
Turning to `O=C1CC[C@@H](S(=O)(=O)c2ccccc2)[C@@H](/C=C/c2ccccc2)O1`, the GI50 in the assay on KM12, with A549, in the assay with SW-620, with HCC 2998, with UO-31 and with RPMI-8226 was > 100 µM (inactive) each time. Also, the GI50 in the assay with RXF 393, in the assay with OVCAR-4, in the assay on HT-29, with OVCAR-8, in the assay with 786-0 and with SK-OV-3 was > 100 µM (inactive) throughout. In addition, the GI50 with UACC-62, in the assay with KM-20L2, with HL-60, in the assay on Malme-3M and in the assay with OVCAR-3 was > 100 µM (inactive) each time.
`CC(C)(C)CC(C)(C)NCC(O)COc1ccc(C(C)(C)c2ccc(OCC(O)CNC(C)(C)CC(C)(C)C)cc2)cc1` (stereo unspecified): the GI50 in the assay on KM12 is 1.56 µM (inactive); in the assay with A549 it was 1.6 µM (inactive); with SW-620, 0.213 µM (active); in the assay with HCC 2998 it was 0.349 µM (active); with UO-31 it was 1.61 µM (inactive); in the assay with RPMI-8226, 1.46 µM (inactive). The GI50 with RXF 393 is 1.82 µM (inactive); in the assay with OVCAR-4 it was 2.01 µM (inactive); in the assay on HT-29, 0.403 µM (active); in the assay with OVCAR-8 it was 1.64 µM (inactive); in the assay on 786-0, 1.06 µM (active); in the assay with SF-268 it was 1.86 µM (inactive). The GI50 with SK-OV-3 was 1.77 µM (inactive); in the assay on UACC-62, 1.81 µM (inactive); in the assay with KM-20L2 it was 1.47 µM (inactive); in the assay on HL-60, 1.46 µM (inactive); with Malme-3M, 1.59 µM (inactive); in the assay on OVCAR-3, 1.77 µM (inactive).
Consider `COC(=O)C1=C(C[S+]([O-])c2ccc([N+](=O)[O-])cc2[N+](=O)[O-])C2C=CC1C2` (stereo unspecified), for which the GI50 in the assay with KM12 was 40.3 µM (inactive); with A549, 57 µM (inactive); with SW-620 it was 14.4 µM (inactive); in the assay on HCC 2998 it was 38.4 µM (inactive); in the assay with UO-31, 22.4 µM (inactive); in the assay with RPMI-8226 it was 77.1 µM (inactive). Also, the GI50 with RXF 393 was 26.2 µM (inactive); with OVCAR-4, 25.7 µM (inactive); in the assay with HT-29, 17.7 µM (inactive); in the assay on OVCAR-8 it was 30.5 µM (inactive); in the assay with 786-0, 27.1 µM (inactive); in the assay with SF-268, 41 µM (inactive). Moreover, the GI50 with SK-OV-3 is 38.3 µM (inactive); in the assay with UACC-62 it was 18 µM (inactive); in the assay with KM-20L2, 22 µM (inactive); with HL-60 it was 16.2 µM (inactive); with Malme-3M, 21.4 µM (inactive); with OVCAR-3, 23.1 µM (inactive).
As for `N#CC(C#N)=c1ccc(=C2NCC3CCCN23)cc1` (stereo unspecified), the GI50 in the assay on KM12, in the assay with A549, in the assay with SW-620, with HCC 2998, in the assay with UO-31 and in the assay with RPMI-8226 was > 100 µM (inactive) each time. Further, the GI50 in the assay on RXF 393, in the assay with OVCAR-4, in the assay on HT-29, with OVCAR-8, with 786-0 and in the assay on SF-268 was > 100 µM (inactive) in each case. The GI50 in the assay with SK-OV-3, in the assay with UACC-62, in the assay with KM-20L2, with HL-60 and in the assay on Malme-3M was > 100 µM (inactive) in each case.
Turning to `CC(=O)NC1=C(Nc2ccc(C)cc2)C(=O)c2ccccc2C1=O`, the GI50 is 24.7 µM (inactive) in the assay on KM12; 14.3 µM (inactive) in the assay on A549; 13.5 µM (inactive) with SW-620; 31.7 µM (inactive) with HCC 2998; 25 µM (inactive) in the assay with UO-31; 11.7 µM (inactive) in the assay with RPMI-8226. Further, the GI50 was 23.5 µM (inactive) with RXF 393; 17.7 µM (inactive) with OVCAR-4; 15.2 µM (inactive) in the assay with HT-29; 25 µM (inactive) in the assay on OVCAR-8; 15.4 µM (inactive) with 786-0; 26.9 µM (inactive) in the assay with SF-268. In addition, the GI50 in the assay with SK-OV-3 is > 75 µM (inactive); in the assay with UACC-62 it was 10.9 µM (inactive); in the assay on KM-20L2, 24.1 µM (inactive); in the assay on HL-60, 10.2 µM (inactive); in the assay with Malme-3M, 11.5 µM (inactive); in the assay on OVCAR-3, 16.6 µM (inactive).
Consider `CC(C)(O)C(O)COc1c2c(cc3oc(=O)ccc13)OCO2` (stereo unspecified), for which the GI50 in the assay on KM12, with A549, with SW-620, with HCC 2998, with UO-31 and with RPMI-8226 was > 100 µM (inactive) each time. Also, the GI50 in the assay with RXF 393, in the assay on OVCAR-4, with HT-29, in the assay on OVCAR-8, in the assay on 786-0 and in the assay on SF-268 was > 100 µM (inactive) throughout. Besides, the GI50 with SK-OV-3, with UACC-62, in the assay on KM-20L2, with HL-60, in the assay on Malme-3M and in the assay on OVCAR-3 was > 100 µM (inactive) throughout.
